As a reminder, the IC50 is the concentration needed to halve the response being measured.

Bounds are passed on as bounds.

The target of one test is T1, RANTES/MIP-1α chemokine receptor (CCR1) in THP-1 cell membranes (Homo sapiens, UniProt P32246).
T1 construct: Membranes were prepared from THP-1 cells (ATCC #TIB202); host or cells: THP-1 cells (membrane preparation)
T1 sequence (P32246 1-355): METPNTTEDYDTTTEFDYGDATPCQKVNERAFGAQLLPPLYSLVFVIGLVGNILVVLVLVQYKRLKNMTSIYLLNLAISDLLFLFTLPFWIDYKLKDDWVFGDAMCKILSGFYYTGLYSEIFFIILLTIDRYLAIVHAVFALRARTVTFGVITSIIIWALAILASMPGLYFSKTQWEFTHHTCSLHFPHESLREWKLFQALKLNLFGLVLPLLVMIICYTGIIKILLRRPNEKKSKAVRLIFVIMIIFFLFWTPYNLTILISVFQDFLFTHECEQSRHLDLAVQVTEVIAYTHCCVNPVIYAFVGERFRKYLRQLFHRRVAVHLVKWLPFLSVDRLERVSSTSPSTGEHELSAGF
The experiment in a line: Receptor binding assay: 125I-RANTES or 125I-MIP-1α binding to THP-1 cell membranes. The conditions noted are these: enantiomers resolved from the racemate on ChiralPak AD; test not named.
Regarding `CC(C)(O)c1ccc2c(c1)C(=CCCN1CCC(O)(c3ccc(Cl)cc3)C(C)(CO)C1)c1cccnc1CO2` (single isomer, unassigned) [Example 483-2, 4-(4-Chloro-phenyl)-3-hydroxymethyl-1-{3-[7-(hydroxyl-1-methyl-ethyl)-11H-10-oxa-1-aza-dibenzo[a,d]cyclohepten-5-ylidene]-propyl}-3-methyl-piperidine-4-ol], the “relative activity of resolved enantiomers” value is “less active enantiomer”.

Staying with this test, now noted: inhibitor concentration required for 50% inhibition of specific binding; 125I-RANTES or 125I-MIP-1α as ligand, THP-1 cell membranes; read-out: IC50.
As for `CCN1C(=O)c2ccccc2C(=CCCN2CCC(O)(c3ccc(Cl)cc3)CC2)c2ccccc21` [Example 40, 4-(4-Chlorophenyl)-1-[3-(6,11-dihydro-5-ethyl-6-oxo-5H-dibenz[b,e]azepin-11-ylidene)propyl]piperidin-4-ol], the IC50 was under 1 µM.

As for `CCCCOC(=O)c1ccc2c(c1)C(=CCCN1CCC(O)(c3ccc(Cl)cc3)CC1)c1ccccc1CO2` [Example 23, 1-[3-(2-Butoxycarbonyl-6,11-dihydrodibenz[b,e]oxepin-11-ylidene)propyl]-4-(4-chlorophenyl)piperidin-4-ol], the IC50 was under 1 µM.

On to `CC(C)(O)c1ccc2c(c1)C(=CCCN1CCC(O)(c3ccc(Cl)cc3)C(C)(CO)C1)c1cccnc1CO2` (single isomer, unassigned) [Example 483-2, 4-(4-Chloro-phenyl)-3-hydroxymethyl-1-{3-[7-(hydroxyl-1-methyl-ethyl)-11H-10-oxa-1-aza-dibenzo[a,d]cyclohepten-5-ylidene]-propyl}-3-methyl-piperidine-4-ol], for which the IC50 is under 10 µM.

For `CC(C)(O)c1ccc2c(c1)C(=CCCN1CCC(N(Cc3ccc(Cl)cc3)C(=O)C3CCCC3)C1)c1cccnc1CO2` (stereo not shown) [Example 564, Cyclopentanecarboxylic acid (4-chloro-benzyl)-(1-{3-[7-(1-hydroxy-1-methyl-ethyl)-11H-10-oxa-1-aza-dibenzo[a,d]cyclohepten-5-ylidene]-propyl}-pyrrolidin-3-yl)-amide], the IC50 is under 10 µM.

With “4-(4-Chlorophenyl)-1-[3-(5,11-dihydro-7-(1-piperidino)methyl[1]benzoxepino[2,3-b]pyridin-5-ylidene)propyl]piperidin-4-ol [Example 277]”, the IC50 is under 1 µM.

In the case of `CC(C)(O)c1ccc2c(c1)C(=CCCN1CCC(C(=O)O)(c3ccc(Cl)cc3)CC1)c1cccnc1CO2` [Example 459, 4-(4-Chloro-phenyl)-1-{3-[7-(1-hydroxy-1-methyl-ethyl)-11H-10-oxa-1-aza-dibenzo[a,d]cyclohepten-5-ylidene]-propyl}-piperidine-4-carboxylic acid], the IC50 is under 10 µM.

On to `CC(=O)OCCOc1ccc2c(c1)C(=CCCN1CCC(O)(c3ccc(Cl)cc3)C(C)(C)C1)c1cccnc1CO2` (stereo not shown) [Example 506, Acetic acid 2-(5-{3-[4-(4-chloro-phenyl)-4-hydroxy-3,3-dimethyl-piperidin-1-yl]-propylidene}-5,11-dihydro-10-oxa-1-aza-dibenzo[a,d]cyclohepten-7-yloxy)-ethyl ester], for which the IC50 is under 1 µM.

As to “1-[3-(5,11-Dihydro-7-methoxy[1]benzoxepino[2,3-b]pyridin-5-ylidene)propyl]-4-(3-pyridyl)piperidin-4-ol [Example 148]”, the IC50 was under 10 µM.

Consider “4-(4-Chlorophenyl)-1-[3-(7-carboxymethyl-5,11-dihydro[1]benzoxepino[2,3-b]pyridin-5-ylidene)propyl]piperidin-4-ol [Example 120]”, for which the IC50 is under 1 µM.

As to “1-[3-(5,11-Dihydro-7-methoxy[1]benzoxepino[2,3-b]pyridin-5-ylidene)propyl]-4-piperidinopiperidine [Example 66]”, the IC50 was under 1000 µM.

In the case of “1-(3-Chlorophenylsulfonyl)-4-[3-(5,11-Dihydro-7-methoxy[1]benzoxepino[2,3-b]pyridin-5-ylidene)propyl]piperazine [Example 191]”, the IC50 was over 10 µM.

As to `COC(=O)C1(c2ccc(Cl)cc2)CCN(CCC=C2c3cc(C(C)(C)O)ccc3OCc3ncccc32)CC1` [Example 458, 4-(4-Chloro-phenyl)-1-{3-[7-(1-hydroxy-1-methyl-ethyl)-11H-10-oxa-1-aza-dibenzo[a,d]cyclohepten-5-ylidene]-propyl}-piperidine-4-carboxylic acid methyl ester], the IC50 was under 10 µM.

For “4-(4-Chlorophenyl)-1-[3-(5,11-dihydro-7-ethyl[1]benzoxepino[2,3-b]pyridin-5-ylidene)propyl]piperidin-4-ol [Example 163]”, the IC50 is under 1 µM.

Take `CC(C)(O)c1ccc2c(c1)C(=CCCN1CCC(Oc3ccccc3Cl)CC1)c1cccnc1CO2` [Example 495, 2-(5-{3-[4-(2-Chloro-phenoxy)-piperidin-1-yl]-propylidene}-5,11-dihydro-10-oxa-1-aza-dibenzo[a,d]cyclohepten-7-yl)-propan-2-ol]: the IC50 is under 1 µM.

Consider `CC(C)(O)c1ccc2c(c1)C(=CCCN1CCC(C#N)(c3ccc(Cl)cc3)CC1)c1cccnc1CO2` [Example 456, 4-(4-Chloro-phenyl)-1-{3-[7-(1-hydroxy-1-methyl-ethyl)-11H-10-oxa-1-aza-dibenzo-[a,d]cyclohepten-5-ylidene]-propyl}-piperidine-4-carbonitrile], for which the IC50 is under 1 µM.

`CNC(=O)C(C)(C)Oc1ccc2c(c1)C(=CCCN1CCC(O)(c3ccc(Cl)cc3)CC1)c1cccnc1CO2` [Example 212, 4-(4-Chlorophenyl)-1-[3-(5,11-dihydro-7-(1-methylaminocarbonyl-1-methyl)ethyloxy[1]benzoxepino[2,3-b]pyridin-5-ylidene)propyl]piperidin-4-ol]: the IC50 was under 1 µM.

`OCc1ccc2c(c1)C(=CCCN1CCC(O)(c3ccc(Cl)cc3)CC1)c1ccccc1CO2` [Example 26, 4-(4-Chlorophenyl)-1-[3-(6,11-dihydro-2-hydroxymethyldibenz[b,e]oxepin-11-ylidene)propyl]piperidin-4-ol]: the IC50 is under 1 µM.

With “4-(4-Chlorophenyl)-1-[3-(5,11-dihydro-7-propargyloxy[1]benzoxepino [2,3-b]pyridin-5-ylidene)propyl]piperidin-4-ol [Example 173]”, the concentration for half-maximal inhibition (IC50) was under 1 µM.

In the case of “4-(4-Chlorophenyl)-1-[3-(5,11-dihydro-7-methoxy[1]benzoxepino[2,3-b]pyridin-5-ylidene)propyl]piperidin-4-ol [Example 45]”, the IC50 was under 1 µM.

As to “4-(7-Chloroindol-3-yl)-1-[3-(5,11-dihydro-7-methoxy[1]benzoxepino[2,3-b]pyridin-5-ylidene)propyl]-1,2,3,6-tetrahydropyridine [Example 195]”, the IC50 was under 10 µM.

In the case of “4-(4-Bromophenyl)-1-[3-(5,11-dihydro-7-methoxy[1]benzoxepino[2,3-b]pyridin-5-ylidene)propyl]piperidin-4-ol [Example 60]”, the IC50 was under 1 µM.

With “4-(4-Chlorophenyl)-1-[3-(5,11-dihydro[1]benzothiepino[2,3-b]pyridin-5-ylidene)propyl]piperidin-4-ol [Example 111]”, the IC50 is under 1 µM.

Regarding `CC(C)(O)c1ccc2c(c1)C(=CCCN1CC[C@@H](N(Cc3ccc(Cl)cc3)C(N)=O)C1)c1cccnc1CO2` [Example 533, (R)-1-(4-Chloro-benzyl)-1-(1-{3-[7-(1-hydroxy-1-methyl-ethyl)-11H-10-oxa-1-aza-dibenzo[a,d]cyclohepten-5-ylidene]-propyl}-pyrrolidin-3-yl)urea], the IC50 is under 10 µM.

In the case of `COC(=O)CN(Cc1ccc(Cl)cc1)C1CCN(CCC=C2c3cc(C(C)(C)O)ccc3OCc3ncccc32)CC1` [Example 500, [(4-Chloro-benzyl)-(1-{3-[7-(1-hydroxy-1-methyl-ethyl)-11H-10-oxa-1-aza-dibenzo[a,d]cyclohepten-5-ylidene]-propyl}-piperidin-4-yl)-amino]-acetic acid methyl ester], the IC50 is under 10 µM.

The record behind these values is US8653096B2, “Chemokine receptor antagonists and methods of use thereof” (Millennium Pharmaceuticals, Inc., priority 2001, dated 2014).
